Laboratory results: US20090105316A1, “Biphenyl Thiazole Carboxamides” (Bayer CropScience AG, priority 2004, published 2009)

Test: Log P determination by HPLC on a reversed-phase column (EEC Directive 79/831, Annex V.A8)
Type: physicochemical
Conditions: reversed-phase HPLC column (C 18); pH 2.3
Protocol: The determination of the Log P values occurred according to EEC Directive 79/831, Annex V.A8 using HPLC (High Performance Liquid Chromatography) on a reversed-phase column (C 18). Temperature: 43° C. Eluents for determination in the acidic range (pH 2.3): 0.1% aqueous phosphoric acid, acetonitrile; linear gradient of 10% acetonitrile to 90% acetonitrile. Calibration took place using unbranched alkane-2-ones (with 3 to 16 carbon atoms) with known Log P values (the Log P values were determined on the basis of the retention times by way of linear interpolation between two consecutive alkanones).

**Q.** Which chromatographic logP does the source give for `Cc1ccc(-c2cc(C(F)(F)F)ccc2N)cc1` [4′-methyl-5-(trifluoromethyl)biphenyl-2-amine] here?
**A.** Its chromatographic logP is 3.98.

**Q.** For `Cc1ccc(-c2cc(C(F)(F)F)ccc2NC(=O)c2sc(C)nc2C(F)(F)F)cc1` [Compound 1.15, 2-methyl-N-[4′-methyl-5-(trifluoromethyl)biphenyl-2-yl]-4-(trifluoromethyl)-1,3-thiazole-5-carboxamide], which chromatographic logP is on record?
**A.** The chromatographic logP was 4.48.
